Several values for one entry are separate records, joined by “and”; a condition that tells them apart may be missing. Identical values can stand only once. Where no end group is shown, it is not given here.
What was measured:
[1] = system: FITC-labelled H. pylori on human gastric mucosa; assay: In situ adhesion assay on histological sections of human gastric mucosa; assay type: cell-based; settings: 300 μM
Method: In situ experiments with histological sections of human gastric mucosa and FITC-labelled H. pylori were performed according to Lengsfeld et al, 2004, J. Agricul. Food Chem: 52, 1495-1503, and evaluated by fluorescent microscopy. The adhesion of FITC-labelled H. pylori to the epithelium was assessed by fluorescent microscopy and imaging. The quantity of adhering bacteria to the epithelial surface was evaluated under double blinded conditions. Maximal adhesion was expressed as total 100% adhesion. The fluorescence area intensity was calculated by ImageJ® software (Olympus, Germany), standardizing the fluorescent area of the negative control as 100%.

OMP BabA = assay: Dot blot glycoconjugate assay, BabA ligands (Lewis b, H type I); assay type: binding; settings: pre-treatment of H. pylori
[2] = system: H. pylori outer membrane proteins (OMP); assay: Dot blot glycoconjugate assay, adhesins in general; assay type: binding; settings: pre-treatment of H. pylori
[3] = system: FITC-labelled H. pylori on AGS cells; assay: Flow cytometric anti-adhesion assay of FITC-labelled H. pylori on AGS cells; settings: for reduction of adhesion: fragments of S3
Method: H. pylori was incubated for 48 h under microaerophilic conditions at 37° C. on Tryptic Soy Agar (Becton Dickinson, Germany), supplemented with 5% defibrinated sheep blood (Oxoid, UK).
Human gastric epithelial cells (AGS cells) were grown in RPMI 1640 with L-glutamine (PAA, Germany), supplemented with 10% FCS, on tissue culture flasks (75 cm^2, Sarstedt, USA) and 6-well-plates (Sarstedt, USA) in 5% CO2.
Agar grown H. pylori were harvested and resuspended in sterile carbonate buffer (pH 9.0) to a density of about 1.0×10^8 bacteria per ml. 10 μl of a FITC solution (1% in DMSO) were added and incubated with the bacteria for 45 min. Fluorescent labelling was terminated by pelleting the bacteria (3.150×g, 5 min). Bacteria were washed twice in PBS to remove excess FITC and were gently resuspended for further use.

[4] = 75 μM, untreated control = 100%
[5] = 150 μM, untreated control = 100%

Row | Compound | rel. adhesion in [%] (±SEM; n = 3) [3, 4] | rel. adhesion in [%] (±SEM; n = 3) [3, 5] | also measured
1 | DFLEDAFNVNR [S3] | 81% and 81 ± 3% | 83% and 83 ± 6% | inhibition of adhesion in situ [1]: about 40%; bacterial interaction with Lewis b-HSA conjugate (OMP BabA): inhibition; influence on other adhesins (other than BabA / Lewis b-HSA) [2]: not significantly influenced; antiadhesive activity against H. pylori (in words) [3]: inhibit adhesion
2 | LDALEPDNRIESEGGLIETWNPNNK [S1] | 95 ± 10% | 104 ± 7% | –
3 | LEDAFNV [S3G] | 93 ± 2% | 94 ± 3% | reduction of adhesion [3]: about 10%
4 | DFLEDAF [S3F] | 85 ± 3% | 90 ± 5% | reduction of adhesion [3]: about 10%
5 | LEDAFNVNR [S3C] | 95 ± 5% | 100 ± 4% | –
6 | AFNVNR [S3B] | 97 ± 4% | 104 ± 1% | –
7 | ELAFPGSAQEVDR [S5] | 94 ± 2% | 85 ± 2% | bacterial interaction with Lewis b-HSA conjugate (OMP BabA): inhibition; influence on other adhesins (other than BabA / Lewis b-HSA) [2]: not significantly influenced; antiadhesive activity against H. pylori (in words) [3]: inhibit adhesion; inhibition of adhesion ([3]; 75 μmol): 6%; inhibition of adhesion ([3]; 150 μmol): 17%
8 | CC(=O)N[C@H]1[C@H]([C@H](O)[C@H](O)CO)O[C@@](O[C@H]2[C@@H](O)[C@@H](CO)O[C@@H](O[C@H]3[C@H](O)[C@@H](O)C(O)O[C@@H]3CO)[C@@H]2O)(C(=O)O)C[C@@H]1O (stereo partly shown) [positive control, 3′sialyllactose, reference compound] | – | – | rel. adhesion in [%] (±SEM; n = 3) ([3]; positive control 3′sialyllactose 15 mM): 70 ± 5%
9 | Asp-Phe-Leu-Glu-Asp (DFLED) [S3A] | 102 ± 3% | 108 ± 6% | –
10 | Asp-Ala-Phe [S3H] | 104 ± 6% | 105 ± 1% | antiadhesive activity against H. pylori (in words) [3]: inactive
11 | WEREEDEEQVDEEWR [S4] | 98 ± 2% | 107 ± 2% | –
12 | LNIGPSSSPDIYNPEAGR [S2] | 93 ± 8% | 94 ± 6% | –
13 | DFLEDAFNV [S3E] | 91 ± 4% | 91 ± 4% | reduction of adhesion [3]: about 10%
14 | GDFELVGQR [S6] | 94 ± 3% | 97 ± 2% | –
15 | DAFNVNR [S3D] | 89 ± 4% | 89 ± 3% | reduction of adhesion [3]: about 10%

Source: patent US9603888B2, “Pea protein peptides with anti Helicobacter pylori activity” (priority 2010, dated 2017)
